Experimental data from patent publication US10758534B2 (Vertex Pharmaceuticals Incorporated, priority 2014, dated 2020).
Read-outs that look alike come from different tables or passages of the source.

Molecular target: T1, F508del (Homo sapiens, UniProt P13569, DEL508-508)
T1 construct: expressed in transfected cells
Assay: Protocol 2: FRET membrane potential optical assay (VIPR), identification of correction compounds
Type: cell-based
How it was run: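 NIH3T3 mouse fibroblasts stably expressing F508del-CFTR incubated with compound 16 h at 37 °C in serum-free medium, then loaded with CC2-DMPE/DiSBAC2(3) FRET dyes. Channel activated with 10 μM forskolin plus 20 μM genistein in Cl⁻-free (gluconate) bath; depolarisation from Cl⁻ efflux read on VIPR II.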

[1] = Table 3, compounds of Table 1 as modulators of CFTR activity, protocol not stated
[2] = F508del CFTR modulator activity, compounds of Table 1, read-out: EC30

T1 sequence (P13569 with tags, fused parts or gaps DEL508-508): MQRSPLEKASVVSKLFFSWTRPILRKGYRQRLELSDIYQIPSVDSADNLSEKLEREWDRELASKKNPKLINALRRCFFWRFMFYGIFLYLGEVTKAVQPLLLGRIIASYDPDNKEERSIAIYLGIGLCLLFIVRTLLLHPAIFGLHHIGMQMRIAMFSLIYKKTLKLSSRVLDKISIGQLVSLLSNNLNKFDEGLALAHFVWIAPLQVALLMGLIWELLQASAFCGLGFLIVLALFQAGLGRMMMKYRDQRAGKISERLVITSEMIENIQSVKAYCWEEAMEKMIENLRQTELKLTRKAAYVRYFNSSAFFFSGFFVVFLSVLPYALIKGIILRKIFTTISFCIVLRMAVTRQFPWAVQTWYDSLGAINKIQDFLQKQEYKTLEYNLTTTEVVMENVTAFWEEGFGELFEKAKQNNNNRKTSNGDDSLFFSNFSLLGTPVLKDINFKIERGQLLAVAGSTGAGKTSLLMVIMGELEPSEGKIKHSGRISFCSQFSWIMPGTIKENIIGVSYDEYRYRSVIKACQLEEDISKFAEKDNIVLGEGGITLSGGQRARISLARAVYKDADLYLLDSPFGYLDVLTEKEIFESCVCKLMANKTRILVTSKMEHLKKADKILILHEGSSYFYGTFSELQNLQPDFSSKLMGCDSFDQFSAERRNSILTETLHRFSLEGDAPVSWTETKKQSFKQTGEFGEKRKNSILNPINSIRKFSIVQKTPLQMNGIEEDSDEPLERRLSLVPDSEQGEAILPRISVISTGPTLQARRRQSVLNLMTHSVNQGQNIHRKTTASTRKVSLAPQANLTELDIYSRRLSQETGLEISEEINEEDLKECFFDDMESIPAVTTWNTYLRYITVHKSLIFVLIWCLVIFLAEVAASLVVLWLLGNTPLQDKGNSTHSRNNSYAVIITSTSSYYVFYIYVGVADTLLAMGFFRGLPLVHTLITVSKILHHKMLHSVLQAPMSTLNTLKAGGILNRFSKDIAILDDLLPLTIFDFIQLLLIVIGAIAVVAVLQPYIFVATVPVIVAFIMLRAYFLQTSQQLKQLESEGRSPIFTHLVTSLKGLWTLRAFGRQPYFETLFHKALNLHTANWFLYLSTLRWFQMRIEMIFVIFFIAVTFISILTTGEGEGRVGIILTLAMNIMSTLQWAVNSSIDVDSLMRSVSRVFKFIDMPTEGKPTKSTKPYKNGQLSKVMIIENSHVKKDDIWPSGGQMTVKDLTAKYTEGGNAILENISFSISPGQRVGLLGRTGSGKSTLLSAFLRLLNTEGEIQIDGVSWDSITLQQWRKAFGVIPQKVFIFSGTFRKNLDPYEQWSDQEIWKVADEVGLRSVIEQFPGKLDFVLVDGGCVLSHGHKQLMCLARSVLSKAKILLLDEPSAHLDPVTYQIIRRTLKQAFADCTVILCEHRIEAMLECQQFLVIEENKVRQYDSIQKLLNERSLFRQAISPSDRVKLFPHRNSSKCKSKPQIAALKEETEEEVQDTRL

EC30 [1] | EC30 [2] [µM] | SMILES
+++ (“+++” means <3 uM) | – | Cc1cccc(C)c1Cn1c(C(=O)NS(=O)(=O)c2ccccc2)cc2ccccc21 [Compound 2, N-(benzenesulfonyl)-1-[(2,6-dimethylphenyl)methyl]indole-2-carboxamide]
+++ (“+++” means <3 uM) | – | Cc1cc(C)c(CN2CCc3ccccc3CC2C(=O)NS(=O)(=O)c2cccc(N3CCOCC3)n2)c(C)c1 (stereo not shown) [Compound 669, N-[(6-morpholino-2-pyridyl)sulfonyl]-3-[(2,4,6-trimethylphenyl)methyl]-1,2,4,5-tetrahydro-3-benzazepine-4-carboxamide]
– | < 3 | CCN(CC)c1cc(C)cc(-c2ccc(C(=O)NS(=O)(=O)c3cccc(N)n3)c(N3C[C@@H](C)CC3(C)C)n2)n1 [Compound 2002, N-[(6-amino-2-pyridyl)sulfonyl]-6-[6-(diethylamino)-4-methyl-2-pyridyl]-2-[(4S)-2,2,4-trimethylpyrrolidin-1-yl]pyridine-3-carboxamide]
++ (“++” means between 3 uM and 10 uM) | – | COc1cc(F)cc(-c2ccc(C(=O)NS(=O)(=O)c3ccc[nH]c3=O)c(Oc3c(C)cc(C)cc3C)n2)c1 [Compound 652, 6-(3-fluoro-5-methoxy-phenyl)-N-[(2-oxo-1H-pyridin-3-yl)sulfonyl]-2-(2,4,6-trimethylphenoxy)pyridine-3-carboxamide]
– | 3 to 10 | CC(Oc1ncccc1C(=O)NS(=O)(=O)c1cccc(N)n1)c1ccccc1C(F)(F)F (stereo not shown) [Compound 2501]
+++ (“+++” means <3 uM) | – | Cc1cc(C)c(CN2Cc3ccccc3C2(C)C(=O)NS(=O)(=O)c2nccnc2N)c(C)c1 (stereo not shown) [Compound 480, N-(3-aminopyrazin-2-yl)sulfonyl-1-methyl-2-[(2,4,6-trimethylphenyl)methyl]isoindoline-1-carboxamide]
– | 3 to 10 | COc1ccc2nc(N3C[C@@H](C)CC3(C)C)c(C(=O)NS(=O)(=O)c3ccc[nH]c3=O)cc2c1 [Compound 2419, 6-methoxy-N-[(2-oxo-1H-pyridin-3-yl)sulfonyl]-2-[(4S)-2,2,4-trimethylpyrrolidin-1-yl]quinoline-3-carboxamide]
++ (“++” means between 3 uM and 10 uM) | – | Cc1cc(C)c(CN2Cc3ccccc3C2C(=O)NS(=O)(=O)c2ccc(N)cc2)c(C)c1 (stereo not shown) [Compound 121, N-(4-aminophenyl)sulfonyl-2-[(2,4,6-trimethylphenyl)methyl]isoindoline-1-carboxamide]
– | < 3 | CC(C)(C)c1ccc(C(=O)NS(=O)(=O)c2cccc(N)n2)c(N2CCC(C3CCOCC3)C2(C)C)n1 (stereo not shown) [Compound 2139]
+++ (“+++” means <3 uM) | – | CC(C)Oc1ccc(-c2ccc(C(=O)NS(=O)(=O)c3cccc(N)n3)c(N3CCCC(C)C3C)n2)cn1 (stereo not shown) [Compound 353, N-[(6-amino-2-pyridyl)sulfonyl]-2-(2,3-dimethyl-1-piperidyl)-6-(6-isopropoxy-3-pyridyl)pyridine-3-carboxamide]
– | < 3 | CCOc1cccc(Nc2cccc(S(=O)(=O)NC(=O)c3cccnc3N3CC(C)CC3(C)C)n2)c1 (stereo not shown) [Compound 2526, N—[[6-(3-ethoxyanilino)-2-pyridyl]sulfonyl]-2-(2,2,4-trimethylpyrrolidin-1-yl)pyridine-3-carboxamide]
– | 3 to 10 | CC1CN(c2ncccc2C(=O)NS(=O)(=O)c2cccc(NC(C)C)n2)C(C)(C)C1 (stereo not shown) [Compound 2200, N—[[6-(isopropylamino)-2-pyridyl]sulfonyl]-2-(2,2,4-trimethylpyrrolidin-1-yl)pyridine-3-carboxamide]
+++ (“+++” means <3 uM) | – | COc1cc(-c2ccc(C(=O)NS(=O)(=O)c3cccc(N)n3)c(Oc3c(C)cc(C)cc3C)n2)ccc1C [Compound 375, N-[(6-amino-2-pyridyl)sulfonyl]-6-(3-methoxy-4-methyl-phenyl)-2-(2,4,6-trimethylphenoxy)pyridine-3-carboxamide]
+++ (“+++” means <3 uM) | – | CCOc1ccc(-c2ccc(C(=O)NS(=O)(=O)c3cccc(N)n3)c(Oc3ccc(C)cc3C)n2)cc1 [Compound 641, N-[(6-amino-2-pyridyl)sulfonyl]-2-(2,4-dimethylphenoxy)-6-(4-ethoxyphenyl)pyridine-3-carboxamide]
+++ (“+++” means <3 uM) | – | Cc1cc(C)c(Oc2nc(-c3cc(C(F)(F)F)nn3C)ccc2C(=O)NS(=O)(=O)c2cccc(N)n2)c(C)c1 [Compound 457, N-[(6-amino-2-pyridyl)sulfonyl]-6-[2-methyl-5-(trifluoromethyl)pyrazol-3-yl]-2-(2,4,6-trimethylphenoxy)pyridine-3-carboxamide]
– | < 3 | CC1CN(c2ncccc2C(=O)NS(=O)(=O)c2cccc(OCc3ccc(Cl)c(Cl)c3)n2)C(C)(C)C1 (stereo not shown) [Compound 2402, N—[[6-[(3,4-dichlorophenyl)methoxy]-2-pyridyl]sulfonyl]-2-(2,2,4-trimethylpyrrolidin-1-yl)pyridine-3-carboxamide]
– | < 3 | CC1CN(c2ncccc2C(=O)NS(=O)(=O)c2cccc(N(C)Cc3cccc(Cl)c3)n2)C(C)(C)C1 (stereo not shown) [Compound 2378, N—[[6-[(3-chlorophenyl)methyl-methyl-amino]-2-pyridyl]sulfonyl]-2-(2,2,4-trimethylpyrrolidin-1-yl)pyridine-3-carboxamide]
++ (“++” means between 3 uM and 10 uM) | – | Cc1cc(C)c(Oc2nc(-c3ccc(C(=O)NC(C)C)c(F)c3)ccc2C(=O)NS(=O)(=O)c2cccc(N)n2)c(C)c1 [Compound 543, N-[(6-amino-2-pyridyl)sulfonyl]-6-[3-fluoro-4-(isopropylcarbamoyl)phenyl]-2-(2,4,6-trimethylphenoxy)pyridine-3-carboxamide]
+++ (“+++” means <3 uM) | – | COc1cccc(-c2ccc(C(=O)NS(=O)(=O)c3cccc(N)n3)c(Oc3c(C)cc(C)cc3C)n2)c1OC [Compound 485, N-[(6-amino-2-pyridyl)sulfonyl]-6-(2,3-dimethoxyphenyl)-2-(2,4,6-trimethylphenoxy)pyridine-3-carboxamide]
– | < 3 | COc1cc(Nc2cccc(S(=O)(=O)NC(=O)c3cccnc3N3CC(C)CC3(C)C)n2)cc(OC)c1 (stereo not shown) [Compound 2357, N—[[6-(3,5-dimethoxyanilino)-2-pyridyl]sulfonyl]-2-(2,2,4-trimethylpyrrolidin-1-yl)pyridine-3-carboxamide]
– | < 3 | CC1CN(c2ncccc2C(=O)NS(=O)(=O)c2cccc(OCC3CC3)n2)C(C)(C)C1 (stereo not shown) [Compound 2342, N—[[6-(cyclopropylmethoxy)-2-pyridyl]sulfonyl]-2-(2,2,4-trimethylpyrrolidin-1-yl)pyridine-3-carboxamide]
+++ (“+++” means <3 uM) | – | Cc1cc(C)c(Oc2nc(C(C)(C)C)ccc2C(=O)NS(=O)(=O)c2ccc[nH]c2=O)c(C)c1 [Compound 51, 6-tert-butyl-N-[(2-oxo-1H-pyridin-3-yl)sulfonyl]-2-(2,4,6-trimethylphenoxy)pyridine-3-carboxamide]
– | < 3 | CCOCCOCCOc1ccn(-c2ccc(C(=O)NS(=O)(=O)c3cccnc3N)c(N3C[C@@H](C)CC3(C)C)n2)n1 [Compound 2326, N-[(2-amino-3-pyridyl)sulfonyl]-6-[3-[2-(2-ethoxyethoxy)ethoxy]pyrazol-1-yl]-2-[(4S)-2,2,4-trimethylpyrrolidin-1-yl]pyridine-3-carboxamide]
+++ (“+++” means <3 uM) | – | CC(C)Oc1ccc(-c2ccc(C(=O)NS(=O)(=O)c3cccc(N)n3)c(N3CCCC4(CC4)C3)n2)cn1 [Compound 703, N-[(6-amino-2-pyridyl)sulfonyl]-2-(7-azaspiro[2.5]octan-7-yl)-6-(6-isopropoxy-3-pyridyl)pyridine-3-carboxamide]
+++ (“+++” means <3 uM) | – | Cc1cc(C)c(Oc2nc(C(C)(C)C)ccc2C(=O)NS(=O)(=O)c2cccc(N(C)C)n2)c(C)c1 [Compound 468, 6-tert-butyl-N-[[6-(dimethylamino)-2-pyridyl]sulfonyl]-2-(2,4,6-trimethylphenoxy)pyridine-3-carboxamide]

SMILES | EC30 [1] | EC30 [2] [µM]
Cc1ccc(Oc2nc(-c3cc(F)cc(OCC(C)C)c3)ccc2C(=O)NS(=O)(=O)c2ccn[nH]2)cc1 [Compound 758, 6-(3-fluoro-5-isobutoxy-phenyl)-2-(4-methylphenoxy)-N-(1H-pyrazol-5-ylsulfonyl)pyridine-3-carboxamide] | ++ (“++” means between 3 uM and 10 uM) | –
CC(C)COc1cc(F)cc(-c2ccc(C(=O)NS(=O)(=O)C3CCCNC3)c(N3C[C@@H](C)CC3(C)C)n2)c1 (stereo partly drawn) [Compound 2655, 6-(3-fluoro-5-isobutoxy-phenyl)-N-(3-piperidylsulfonyl)-2-[(4S)-2,2,4-trimethylpyrrolidin-1-yl]pyridine-3-carboxamide] | – | < 3
CC(C)COc1cc(F)cc(-c2ccc(C(=O)NS(=O)(=O)c3cccc(N)n3)c(N3CCC(C)C3C)n2)c1 (stereo not shown) [Compound 720, N-[(6-amino-2-pyridyl)sulfonyl]-2-(2,3-dimethylpyrrolidin-1-yl)-6-(3-fluoro-5-isobutoxy-phenyl)pyridine-3-carboxamide] | +++ (“+++” means <3 uM) | –
CC(C)COc1cc(F)cc(-c2ccc(C(=O)NS(=O)(=O)c3cccc(N)n3)c(OC3CCC(C)CC3)n2)c1 (stereo not shown) [Compound 438, N-[(6-amino-2-pyridyl)sulfonyl]-6-(3-fluoro-5-isobutoxy-phenyl)-2-(4-methylcyclohexoxy)pyridine-3-carboxamide] | +++ (“+++” means <3 uM) | –
CC(C)COc1cc(F)cc(-c2ccc(C(=O)NS(=O)(=O)c3cccc(N)n3)c(N3CCC(C(F)(F)F)C3(C)C)n2)c1 (stereo not shown) [Compound 780, N-[(6-amino-2-pyridyl)sulfonyl]-2-[2,2-dimethyl-3-(trifluoromethyl)pyrrolidin-1-yl]-6-(3-fluoro-5-isobutoxy-phenyl)pyridine-3-carboxamide] | +++ (“+++” means <3 uM) | –
CC(C)COc1cc(F)cc(-c2ccc(C(=O)NS(=O)(=O)N3CC[C@@H](O)C3)c(N3C[C@@H](C)CC3(C)C)n2)c1 [Compound 2427, 6-(3-fluoro-5-isobutoxy-phenyl)-N-[(3R)-3-hydroxypyrrolidin-1-yl]sulfonyl-2-[(4S)-2,2,4-trimethylpyrrolidin-1-yl]pyridine-3-carboxamide] | – | < 3
